Source: ChEMBL document CHEMBL1150663, “Pachastrissamine, a cytotoxic anhydrophytosphingosine from a marine sponge, Pachastrissa sp” (J Nat Prod, 2002)

Legend:
Assay type in all cases: functional, cell-based
[1] = test system: P388; experiment: Cytotoxicity against mouse P388 cells after 3 days; conditions: P388, 72 h
[2] = test system: HT-29; experiment: Cytotoxicity against human HT-29 cells after 3 days; conditions: HT-29, 72 h
[3] = test system: SK-MEL-28; experiment: Cytotoxicity against human SK-MEL-28 cells after 3 days; conditions: SK-MEL-28, 72 h
[4] = test system: A549; experiment: Cytotoxicity against human A549 cells after 3 days; conditions: A549, 72 h

Measured: IC50

CCCCCCCCCCCCCC[C@@H]1OC[C@H](N)[C@@H]1O [PACHASTRISSAMINE]
0.01 mg/L: [1] | [2] | [3] | [4]
